Reference: patent publication US20130236568A1, “PHOSPHAPLATINS HAVING ANTI-ANGIOGENIC, ANTI-METASTATIC, AND PRO-APOPTOTIC PROPERTIES AND USES THEREOF” (Ohio University, priority 2011, published 2013)

Assays:
Type in all cases: cell-based, human
Bcl-2 = experiment: Expression of key genes with and without p53 inhibitor (Table 3): Bcl-2; conditions: positive = manifold increase, negative = decrease vs untreated cells
Method: (§1) Quantitative real-time PCR experiments were performed to estimate the expression of a selection of targeted genes. HUVEC cells (Lonza Walkersville, Frederick, Md.) were cultured on 0.1% gelatin-coated petri dishes by following standard protocols recommended by the vendor in a humidified incubator by maintaining 5% CO2 at 37° C. Human epithelial ovarian cancer cells (A2780) and cisplatin-resistant cells (A2780/C30) were cultured in RPMI 1640 with or without cisplatin (7 μM) and pyrodach-4 (180 μM) for 0, 3, 12 and 24 hours. […] HUVECs were treated with or without cisplatin (7 μM) or pyrodach-4 (90 or 180 μM) for various durations ranging from 1 hr. to 6 hrs.
(§2) Both treated and untreated cancer cells were maintained in RPMI 1640 medium with 10% fetal bovine serum, 2 μmol L-glutamine, 100 units/mL penicillin-streptomycin and 0.25 units/mL insulin solution, at 37° C. with 5% CO2. RNA was isolated from both the treated and untreated cells. […] The quantity and purity of RNA were determined by UV spectroscopy (NanoDrop 2000 Thermo Scientific, Wilmington, Del.). A minimum absorbance ratio index (ratio of the absorbance measured at 260 nm over that at 280 nm) of 1.9 was used as an acceptable purity. […] The target gene was labeled with a blue dye (FAM, absorbance: 494 nm, emission: 518 nm) while the reference gene was tagged with a green dye (VIC, absorbance: 538 nm, emission: 554 nm). […]

Caspase 3 = experiment: Expression of key genes with and without p53 inhibitor (Table 3): Caspase 3; conditions: positive = manifold increase, negative = decrease vs untreated cells
Method: as §1, §2

PTEN = experiment: Quantitative real-time PCR, PTEN expression in HUVEC; conditions: HUVEC treated with pyrodach-4
Method: Evaluations of selected gene expressions in Human Umbilical Vein Endothelial Cells (HUVEC) and Human Ovarian Cancer Cells by quantitative reverse transcriptase polymerase chain reaction (PCR)
Quantitative real-time PCR experiments were performed to estimate the expression of a selection of targeted genes. HUVEC cells (Lonza Walkersville, Frederick, Md.) were cultured on 0.1% gelatin-coated petri dishes by following standard protocols recommended by the vendor in a humidified incubator by maintaining 5% CO2 at 37° C. […]
as §2, with “CO2.” for “CO2. RNA was isolated from both the treated and untreated cells.”
The threshold cycle number (Ct), the point at which the fluorescence of the qPCR reaction just exceeds the threshold fluorescence of the detection system, was determined. […]

E-cadherin = experiment: Immunofluorescent labeling of E-cadherin protein in A2780 cells; conditions: 24 hr treatment at or below IC50 concentration
Method: Left panels show E-cadherin bound to its antibody labeled with FITC (green). The middle and right panels represent nuclei stained with Prolong® Gold Antifade Reagent with 4′-6-Diamidino-2-phenylindole (DAPI, a nuclear stain) and merger of the left and middle panels (see Example 5 below for details).
Cells were grown on multi-chamber slide systems (Lab-Tek™, Nunc, Denmark). These cells were treated with pyrodach-4 at or below IC50 concentrations for 24 hours. Untreated cells were used as a control while treated and untreated cells without primary antibody labeling were used as negative controls. […] The Fas and E-cadherin proteins were detected via direct labeling using anti-Fas (FITC labeled, Santa Cruz Biotechnology, Inc., Santa Cruz, Calif.) and anti-E-cadherin (FITC labeled, BD Transduction Laboratories, Franklin Lakes, N.J.) fluorescently tagged antibodies. Other proteins, p53, BAX and PUMA were detected indirectly with fluorescently labeled secondary antibodies (Texas Red-conjugated anti-mouse IgG for p53 and Fluorescein-conjugated anti-rabbit IgG for BAX and PUMA, obtained from Vector Labs, Burlingame, Calif.) at 1:1000 dilution. […] The stain was cured for 24 hours before fluorescence images were acquired. […]

“trans-(±)-1,2-cyclohexanediamine-trans-dihydroxo(pyrophosphato) platinum(IV) [Pyrodach-4]” was tested. Which “Expression of Bcl-2” value (Bcl-2; Pyrodach-4 + PFT-α) did it give?
The value was −2.0.

What about the “Expression of Bcl-2” value (Bcl-2; Pyrodach-4 treatment only) of the same substance?
The value was 1.0.

And the “Expression of Caspase 3” value (Caspase 3; Pyrodach-4 + PFT-α)?
The value was −1.2.

And the “Expression of Caspase 3” value (Caspase 3; Pyrodach-4 treatment only)?
Its value is 2.6.

What about the “Over-expression of PTEN” value (PTEN) of the same substance?
Its value is 4-8 fold.

And the “Diffusivity of E-cadherin (immunofluorescence)” value (E-cadherin)?
The value was “reduces the diffusivity”.

What about the “Expression of E-cadherin protein (immunofluorescence)” value (E-cadherin) of the same substance?
Its value is “increases the expression”.
